Some test systems named below: Escherichia coli; Serratia marcescens; Bacillus subtilis 168 HT; Escherichia coli BL21; Cutibacterium acnes.
Common to all, as to experiment: ≥ marks a high value that may be exact or a test limit, other limits are often not marked, values filed in µg/mL are converted to µM
For assay [1], the system named is Staphylococcus aureus NCTC 10788.
Assay [2] concerns Enterococcus faecalis NCTC 12697.
Assay [3] has as its system Staphylococcus aureus ATCC 12493.
The test system of assay [4] is Candida albicans NCPF 1467.
Assay [5] deals with Pseudomonas aeruginosa ATCC 27853.
In assay [6] the test system is Escherichia coli NCTC 10418.
Assay [7] relates to Vibrio ordalii KCCM 41669.
Assay [8] has as its system Vibrio harveyi ATCC 14126.
Assay [9] relates to Streptococcus parauberis KSP 28.
For assay [10], the system named is Vibrio alginolyticus KCCM 2928.
The subject of assay [11] is Streptococcus parauberis PH0710.
The subject of assay [12] is Streptococcus iniae FP5228.
The test system of assay [13] is Vibrio anguillarum TR14001NF.
The subject of assay [14] is Vibrio campbellii KCCM 40684.
The subject of assay [15] is Edwardsiella piscicida FSW 910410.
Assay [16] has as its system Bacillus subtilis KCTC 1021.
Assay [17] concerns Pseudomonas aeruginosa ATCC 9027.
Assay [18] has as its system Klebsiella pneumoniae ATCC 10031.
Assay [19] deals with Shigella dysenteriae ATCC 9752.
The subject of assay [20] is Micrococcus luteus ATCC 4698.
Assay [21] has as its system Salmonella enterica subsp. enterica serovar Typhimurium ATCC 14028.
In assay [22] the test system is Staphylococcus aureus ST88.
The test system of assay [23] is Staphylococcus haemolyticus 527.
The subject of assay [24] is Escherichia coli K12 MG1655.
Assay [25] concerns Staphylococcus aureus ATCC BAA-41.
The test system of assay [26] is Staphylococcus epidermidis.
The subject of assay [27] is Staphylococcus aureus ATCC 6538P.
Assay [28] deals with Pseudomonas aeruginosa PAO1.
In assay [29] the test system is Escherichia coli NBRC 14237.
The subject of assay [30] is Saccharomyces cerevisiae NBRC 10217.
The test system of assay [31] is Staphylococcus aureus NBRC 12732.
Assay [32] has as its system Staphylococcus aureus ATCC 2592.
Assay [33] concerns Cutibacterium acnes ATCC 11827.
For assay [34], the system named is Staphylococcus epidermidis 09B2490.
For assay [35], the system named is Cutibacterium acnes ATCC 6919.
Assay [36] relates to Staphylococcus epidermidis 09A3726.

≈ marks a conversion by molar mass, not a printed value.

As a reminder, the MIC is the smallest concentration in the dilution series that meets the test's criterion for growth inhibition. The low end stands for greater potency, the high end for weaker potency.

Regarding `CC[C@H](C)[C@H](NC(=O)[C@H](CCCCN)NC(=O)[C@@H]1CCCN1C(=O)[C@H](CC(C)C)NC(=O)[C@@H](N)Cc1ccccc1)C(=O)N[C@@H](CC(C)C)C(=O)N[C@@H](CCCCN)C(=O)N[C@H](C(=O)N[C@@H](C)C(=O)N[C@@H](C)C(=O)N[C@@H](CCCCN)C(N)=O)C(C)C` [FLPKILKVAAK], the MIC in assay [1] was not below 256 µM; in [2], not below 512 µM; in assay [3] it was not below 512 µM; in assay [4], not below 256 µM; in assay [5], more than 512 µM; in assay [6], not below 512 µM.

With `CC[C@H](C)[C@H](NC(=O)[C@H](CCCCN)NC(=O)[C@@H](NC(=O)[C@@H](N)Cc1ccccc1)[C@@H](C)O)C(=O)N[C@@H](Cc1ccc(O)cc1)C(=O)NCC(=O)N[C@@H](CO)C(=O)N[C@@H](CCCN=C(N)N)C(=O)N[C@@H](CC(C)C)C(=O)N[C@@H](CCC(N)=O)C(=O)N[C@@H](CCCCN)C(=O)N[C@H](C(=O)N[C@@H](CC(C)C)C(=O)NCC(=O)N[C@@H](CC(N)=O)C(=O)O)C(C)C` [FTKIYGSRLQKVLGN], the MIC is not below 205 µM in [7]; not below 51.3 µM in [8]; not below 290 µM in assay [9]; not below 205 µM in assay [10]; not below 103 µM in [11]; not below 51.3 µM in assay [12]. Further, the figures for the MIC in assay [13], in assay [14] and in assay [15] were not below 290 µM, not below 51.3 µM and not below 290 µM, respectively.

On to `CC[C@H](C)[C@H](NC(=O)CN)C(=O)N[C@@H](CC(C)C)C(=O)N[C@@H](CC(=O)O)C(=O)N[C@H](C(=O)N[C@@H](CC(C)C)C(=O)N[C@@H](CCCCN)C(=O)N[C@@H](CCC(N)=O)C(=O)N[C@@H](Cc1ccccc1)C(=O)N[C@@H](C)C(=O)N[C@@H](CCCCN)C(=O)NCC(=O)N[C@H](C(=O)NCC(=O)N[C@@H](CCCCN)C(=O)N[C@@H](Cc1c[nH]c2ccccc12)C(=O)N[C@@H](CC(C)C)C(=O)N[C@H](C(=O)N[C@@H](CCCCN)C(=O)NCC(=O)N[C@@H](C)C(=O)N[C@@H](C)C(=O)N[C@@H](CCC(N)=O)C(=O)O)C(C)C)C(C)C)[C@@H](C)O` [GILDTLKQFAKGVGKWLVKGAAQ], for which the MIC in assay [16] worked out at 10.3 µM (≈ 25 µg/mL); against Escherichia coli, 10.3 µM (≈ 25 µg/mL); in [17], 51.5 µM (≈ 125 µg/mL); in assay [18], 10.3 µM (≈ 25 µg/mL); in assay [19] it was 20.6 µM (≈ 50 µg/mL); in assay [20], 1.03 µM (≈ 2.5 µg/mL). Besides, the MIC was 51.5 µM (≈ 125 µg/mL) in [21] and not below 82.3 µM against Serratia marcescens.

For `CC[C@H](C)[C@H](N)C(=O)NCC(=O)N[C@@H](CCCN=C(N)N)C(=O)N[C@@H](Cc1cnc[nH]1)C(=O)N[C@@H](Cc1ccccc1)C(=O)N[C@@H](CCCCN)C(=O)N[C@@H](CCCN=C(N)N)C(=O)N[C@@H](CCCN=C(N)N)C(=O)N[C@@H](CC(N)=O)C(=O)N[C@@H](CO)C(=O)N[C@H](C(=O)N[C@@H](Cc1c[nH]c2ccccc12)C(=O)NCC(=O)N[C@H](C(=O)N[C@@H](CS)C(=O)N[C@@H](Cc1c[nH]c2ccccc12)C(=O)N[C@@H](Cc1ccccc1)C(=O)O)[C@@H](C)CC)[C@@H](C)CC` [IGRHFKRRNSIWGICWF], the MIC was not below 100 µM in assay [22], 14.8 µM (≈ 32.2 µg/mL) in [23], 14.8 µM (≈ 32.2 µg/mL) in the assay on Bacillus subtilis 168 HT and 14.8 µM (≈ 32.2 µg/mL) in assay [24].

`CC[C@H](C)[C@H](NC(=O)[C@H](CCCCN)NC(=O)[C@H](CCCCN)NC(=O)[C@H](Cc1ccccc1)NC(=O)[C@H](CC(C)C)NC(=O)[C@H](CCCCN)NC(=O)[C@H](Cc1c[nH]c2ccccc12)NC(=O)[C@@H](N)CCCCN)C(=O)NCC(=O)N[C@@H](C)C(=O)N[C@H](C(=O)N[C@@H](CC(C)C)C(=O)N[C@@H](CCCCN)C(=O)N[C@@H](CCCCN)C(=O)N[C@@H](CC(C)C)C(=O)O)C(C)C` [KWKLFKKIGAVLKKL]: the MIC amounted to 8 µM (≈ 14.4 µg/mL) in assay [25]; 0.354 µM (≈ 0.637 µg/mL) in assay [26]; 5.66 µM (≈ 10.2 µg/mL) in assay [27]; 2.83 µM (≈ 5.09 µg/mL) in assay [28]; 2 µM (≈ 3.6 µg/mL) against Escherichia coli BL21.

On to `CC[C@H](C)[C@H](NC(=O)[C@@H](N)[C@@H](C)O)C(=O)N[C@@H](CC(N)=O)C(=O)N[C@@H](CCCCN)C(=O)N[C@@H](CCCCN)C(=O)N[C@@H](Cc1ccccc1)C(=O)N[C@@H](CCCN=C(N)N)C(=O)N[C@@H](Cc1c[nH]c2ccccc12)C(=O)N[C@@H](Cc1cnc[nH]1)C(=O)NCC(=O)N[C@@H](CCCCN)C(=O)N[C@@H](CCCN=C(N)N)C(=O)N[C@@H](CCCCN)C(=O)N[C@@H](Cc1c[nH]c2ccccc12)C(=O)N[C@@H](Cc1c[nH]c2ccccc12)C(=O)N[C@@H](CC(C)C)C(=O)N[C@@H](CCCN=C(N)N)C(=O)N[C@@H](Cc1ccccc1)C(=O)N[C@H](C(=O)N[C@@H](CCCCN)C(=O)N[C@@H](CCC(N)=O)C(=O)O)C(C)C` [TINKKFRWHGKRKWWLRFVKQ], for which the MIC in [29] worked out at 3.12 µM (≈ 8.89 µg/mL); in assay [30], 6.25 µM (≈ 17.8 µg/mL); in assay [31] it was 3.12 µM (≈ 8.89 µg/mL).

For the molecule `CC(C)[C@H](N)C(=O)N[C@@H](CCCCN)C(=O)N[C@@H](CCCN=C(N)N)C(=O)N[C@@H](Cc1c[nH]c2ccccc12)C(=O)N[C@@H](CCCCN)C(=O)N[C@@H](CCCCN)C(=O)N[C@@H](Cc1c[nH]c2ccccc12)C(=O)N[C@@H](Cc1c[nH]c2ccccc12)C(=O)N[C@@H](CCCN=C(N)N)C(=O)N[C@@H](CCCCN)C(=O)N[C@@H](Cc1c[nH]c2ccccc12)C(=O)N[C@@H](CCCCN)C(=O)N[C@@H](CCCCN)C(=O)N[C@@H](Cc1c[nH]c2ccccc12)C(=O)N[C@H](C(N)=O)C(C)C` [VKRWKKWWRKWKKWV], the MIC worked out at 1.03 µM (≈ 2.3 µg/mL) in [32]; 0.269 µM (≈ 0.6 µg/mL) in [33]; 1.03 µM (≈ 2.3 µg/mL) in [34]; 0.269 µM (≈ 0.6 µg/mL) in the assay with Cutibacterium acnes; 0.269 µM (≈ 0.6 µg/mL) in assay [35]; 2.11 µM (≈ 4.7 µg/mL) in assay [36].

Values taken from DBAASP.
